# pIC50: −log10 of the molar value. Active and inactive are the calls of the source. No cut-off for these calls is given here.
# Assays:
# [1] = target: T1, Amyloid-beta precursor protein (Homo sapiens, UniProt P05067); assay: Inhibition of Cu2+ induced of amyloid beta (1 to 42) aggregation (unknown origin)
# [2] = Acute toxicity in mouse assessed as histopathological change in spleen at 2000 mg/kg, IG administered as single dose measured after 14 days measured by H and E staining analysis; type: organism-based; conditions: in vivo, po, 336 h, time 14 day
# [3] = target: T1, Amyloid-beta precursor protein; assay: Inhibition of amyloid beta (1 to 42) (unknown origin) self aggregation assessed as disaggregation
# [4] = AUC(0 to t) in Sprague-Dawley rat at 15 mg/kg, IG; type: ADME, organism-based; design: dose 15 mg/kg, route ig; conditions: in vivo, po
# [5] = Ratio of drug concentration in hippocampus to plasma of Sprague-Dawley rat at 15 mg/kg, IG measured after 0.167 hrs; type: ADME, organism-based; conditions: po
# [6] = target: T1, Amyloid-beta precursor protein; assay: Inhibition of amyloid beta (1 to 42) (unknown origin) self aggregation assessed as disaggregation relative to control; design: concentration or dose not given beside the values; conditions: concentration not given here
# Mus musculus [7] = assay: Anti alzheimer activity in scopolamine induced anxiety in ICR mouse assessed as improved cognitive function pretreated with scopolamine at 3 mg/kg, ip for 31 days followed by compound addition at 20 mg/kg, po at day 7 to 31 by morris water maze test; type: functional, organism-based; conditions: time 25.0 day
# [8] = Drug concentration in hippocampus of Sprague-Dawley rat at 15 mg/kg, IG measured after 0.5 hrs; type: ADME, organism-based; conditions: po, read-out: Drug uptake
# [9] = Drug concentration in plasma of Sprague-Dawley rat at 15 mg/kg, IG measured after 0.25 hrs; type: ADME, organism-based; conditions: po
# [10] = MRT(0 to t) in Sprague-Dawley rat at 15 mg/kg, IG; type: ADME, organism-based; conditions: in vivo, po
# [11] = Acute toxicity in mouse assessed as histopathological change in heart at 2000 mg/kg, IG administered as single dose measured after 14 days measured by H and E staining analysis; type: organism-based; conditions: in vivo, po, 336 h, time 14 day
# [12] = Metal chelating activity assessed as compound-Mn2+ complex formation by optical shift at 50 uM in PBS buffer 7.4 by UV-vis spectrometric analysis
# [13] = Clearance in Sprague-Dawley rat at 15 mg/kg, IG; type: ADME, organism-based; conditions: in vivo, po
# [14] = Drug concentration in hippocampus of Sprague-Dawley rat at 15 mg/kg, IG measured after 0.25 hrs; type: ADME, organism-based; conditions: po, read-out: Drug uptake
# [15] = Ratio of drug concentration in hippocampus to plasma of Sprague-Dawley rat at 15 mg/kg, IG measured after 0.5 hrs; type: ADME, organism-based; conditions: po
# Mus musculus [16] = assay: Neuroprotective effect in scopolamine induced cognitively impaired mouse assessed as decrease in neuronal damage in CA1 region by measuring increase in neuronal nuclear antigen level at hippocampus at 20 mg/kg by immunoblot analysis; type: functional, organism-based
# [17] = Drug concentration in hippocampus of Sprague-Dawley rat at 15 mg/kg, IG measured after 0.083 hrs; type: ADME, organism-based; conditions: po, read-out: Drug uptake
# [18] = Drug concentration in hippocampus of Sprague-Dawley rat at 15 mg/kg, IG measured after 4 hrs; type: ADME, organism-based; conditions: po, read-out: Drug uptake
# [19] = Ratio of drug concentration in hippocampus to plasma of Sprague-Dawley rat at 15 mg/kg, IG measured after 4 hrs; type: ADME, organism-based; conditions: po
# [20] = Metal chelating activity assessed as compound-K+ complex formation by optical shift at 50 uM in PBS buffer 7.4 by UV-vis spectrometric analysis
# Mus musculus [21] = assay: In vivo effect on NRF2 expression in scopolamine induced cognitive impaired mouse assessed as reversal of NRF2 signalling in hippocampus treated at 20 mg/kg by immunofluorescence analysis; type: functional, organism-based
# [22] = Acute toxicity in mouse assessed as change in behaviour at 2000 mg/kg, IG administered as single dose measured after 14 days; type: organism-based; conditions: in vivo, po, 336 h, time 14 day
# [23] = target: T1, Amyloid-beta precursor protein; assay: Inhibition of amyloid beta (1 to 42) (unknown origin) self aggregation assessed as low density in amyloid fibrils compound addition at 50 uM after fibrilation for 24 hrs
# Mus musculus [24] = assay: Anti alzheimer activity in scopolamine induced anxiety in ICR mouse assessed as decrease in motor trajectories pretreated with scopolamine at 3 mg/kg, ip for 31 days followed by compound addition at 20 mg/kg, po at day 7 to 31 by morris water maze test; type: functional, organism-based; conditions: time 25.0 day
# Mus musculus [25] = assay: In vivo effect on NRF2 expression in scopolamine induced cognitive impaired mouse assessed as reversal of NRF2 signalling in hippocampus treated at 20 mg/kg by immunoblot analysis; type: functional, organism-based
# Mus musculus [26] = assay: Anti alzheimer activity in scopolamine induced anxiety in ICR mouse assessed as improved exploratory activity pretreated with scopolamine at 3 mg/kg, ip for 31 days followed by compound addition at 20 mg/kg, po at day 7 to 31; type: functional, organism-based; conditions: time 25.0 day
# [27] = Metal chelating activity assessed as compound-Fe2+ complex formation by measuring shift at 2:1 at 50 uM in PBS buffer 7.4 by UV-vis spectrometric analysis
# [28] = Drug concentration in plasma of Sprague-Dawley rat at 15 mg/kg, IG measured after 1 hrs; type: ADME, organism-based; conditions: po
# Mus musculus [29] = assay: Neuroprotective effect in scopolamine induced cognitively impaired mouse assessed as […] of amyloid beta plaque deposition at 20 mg/kg by ELISA analysis; type: functional, organism-based
# Mus musculus [30] = assay: Neuroprotective effect in scopolamine induced cognitively impaired mouse assessed as recovery of decreased Nissl bodies in CA3 region at hippocampus at 20 mg/kg by Nissl staining analysis; type: functional, organism-based
# BV-2 = assay: Neuroprotective activity against amyloid beta (1 to 42) induced neurotoxicity in mouse BV-2 cells assessed as survival of cells at 2.5 uM treated for 24 hrs relative to control; type: functional
# [31] = target: T1, Amyloid-beta precursor protein; assay: Inhibition of amyloid beta (1 to 42) (unknown origin) self aggregation assessed as shorter in amyloid fibrils compound addition at 50 uM after fibrilation for 24 hrs
# [32] = target: T1, Amyloid-beta precursor protein; assay: Inhibition of amyloid beta (1 to 42) (unknown origin) self aggregation at 50 uM relative to control
# Mus musculus [33] = assay: Anti alzheimer activity in scopolamine induced anxiety in ICR mouse assessed as decrease in chaotic behaviour pretreated with scopolamine at 3 mg/kg, ip for 31 days followed by compound addition at 20 mg/kg, po at day 7 to 31 by morris water maze test; type: functional, organism-based; conditions: time 25.0 day
# Mus musculus [34] = assay: In vivo antiinflammatory activity in scopolamine induced cognitive impaired ICR mouse assessed as decrease in Iba1 levels in hippocampus by immunoblot analysis; type: functional, organism-based
# [35] = Drug concentration in hippocampus of Sprague-Dawley rat at 15 mg/kg, IG measured after 0.167 hrs; type: ADME, organism-based; conditions: po, read-out: Drug uptake
# [36] = target: T1, Amyloid-beta precursor protein; assay: Inhibition of amyloid beta (1 to 42) (unknown origin) self aggregation
# [37] = Drug concentration in plasma of Sprague-Dawley rat at 15 mg/kg, IG measured after 0.5 hrs; type: ADME, organism-based; conditions: po
# [38] = Metal chelating activity assessed as compound-Ca2+ complex formation by optical shift at 50 uM in PBS buffer 7.4 by UV-vis spectrometric analysis
# [39] = target: T1, Amyloid-beta precursor protein; assay: Inhibition of Fe3+ induced of amyloid beta (1 to 42) aggregation (unknown origin)
# [40] = Metal chelating activity assessed as compound-Mg2+ complex formation by optical shift at 50 uM in PBS buffer 7.4 by UV-vis spectrometric analysis
# [41] = Acute toxicity in mouse assessed as lethal dose administered as single IG dose measured after 14 days measured by H and E staining analysis; conditions: in vivo, po, time 14 day
# T1 sequence (P05067 whole entry): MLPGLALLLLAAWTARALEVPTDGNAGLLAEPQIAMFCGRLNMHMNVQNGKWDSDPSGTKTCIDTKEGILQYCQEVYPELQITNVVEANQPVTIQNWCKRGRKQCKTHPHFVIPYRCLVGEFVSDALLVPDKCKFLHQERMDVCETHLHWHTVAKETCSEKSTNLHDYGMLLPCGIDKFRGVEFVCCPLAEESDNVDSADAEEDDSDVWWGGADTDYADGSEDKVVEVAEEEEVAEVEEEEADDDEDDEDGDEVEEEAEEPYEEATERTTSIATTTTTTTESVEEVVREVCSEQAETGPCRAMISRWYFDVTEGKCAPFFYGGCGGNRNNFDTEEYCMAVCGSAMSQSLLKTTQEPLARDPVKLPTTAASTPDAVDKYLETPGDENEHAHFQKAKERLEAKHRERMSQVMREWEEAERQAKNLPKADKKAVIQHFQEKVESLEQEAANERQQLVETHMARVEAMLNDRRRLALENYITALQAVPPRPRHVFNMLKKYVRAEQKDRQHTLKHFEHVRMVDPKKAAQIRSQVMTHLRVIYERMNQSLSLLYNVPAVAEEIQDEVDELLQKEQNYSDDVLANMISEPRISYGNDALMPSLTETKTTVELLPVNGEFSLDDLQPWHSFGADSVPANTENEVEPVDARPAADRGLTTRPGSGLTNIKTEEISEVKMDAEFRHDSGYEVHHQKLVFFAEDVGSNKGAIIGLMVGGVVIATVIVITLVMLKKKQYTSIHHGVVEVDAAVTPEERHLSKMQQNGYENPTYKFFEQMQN
structure (smiles),measurement,setting,value
O=c1ccoc(/C=C/c2ccc(O)c(O)c2)c1O,pIC50,[1],5.43
same,Activity,[2],Non-Toxic
same,pIC50,[3],5.16
same,AUC(0-t),[4],24.4 ng·h/mL
same,Kp at 0.167 h,[5],0.07
same,inhibition,[6],90.4%
same,Activity,Mus musculus [7],Active
same,concentration at 0.5 h,[8],5.4 ng/mL
same,concentration at 0.25 h,[9],5.32 ng/mL
same,MRT last,[10],6.36 h
same,Activity,[11],Non-Toxic
same,Activity,[12],inactive
same,CL/F,[13],481 L/h/kg
same,concentration at 0.25 h,[14],2.57 ng/mL
same,Kp at 0.5 h,[15],2.27
same,Activity,Mus musculus [16],Active
same,concentration at 0.083 h,[17],1.14 ng/mL
same,concentration at 4 h,[18],4.89 ng/mL
same,Kp at 4 h,[19],5.62
same,Activity,[20],inactive
same,Activity,Mus musculus [21],Active
same,Activity,[22],Non-Toxic
same,Activity,[23],Active
same,Activity,Mus musculus [24],Active
same,Activity,Mus musculus [25],Active
same,Activity,Mus musculus [26],Active
same,Activity,[27],Active
same,concentration at 1 h,[28],1.77 ng/mL
same,Activity,Mus musculus [29],Active
same,Activity,Mus musculus [30],Active
same,Activity,BV-2,56.3%
same,Activity,[31],Active
same,inhibition,[32],80.3%
same,Activity,Mus musculus [33],Active
same,Activity,Mus musculus [34],Active
same,concentration at 0.167 h,[35],1.41 ng/mL
same,pIC50,[36],4.95
same,concentration at 0.5 h,[37],2.68 ng/mL
same,Activity,[38],inactive
same,pIC50,[39],5.01
same,Activity,[40],inactive
same,LD50 at 336 h,[41],≥ 2000 mg/kg
